We go through one compound from US11925645B2, “Enhanced caffeinated beverage composition” (Ortho-Nutra, LLC, priority 2013, dated 2024).

A short description of data set [1]: Acute TeaCrine crossover trial: hemodynamics and side effect profiles. In kind it is in vivo, human. How it is done: Anchored VAS questionnaires were used to detect changes in various aspects of physical and mental energy and performance; side effect profiles, hemodynamics and biochemical markers of safety were also collected over a 3-hr post-dosing period. A subset of 6 subjects underwent a separate 7-day, open-label, repeated dose study comparing 100 mg, 200 mg and 400 mg of TC.
Physical activity levels and health history were determined using standardized questionnaires. Heart rate and blood pressure were measured using an Omron HEM-780. Standing height was determined using a wall-mounted stadiometer. […] Medical Scale. A 100 mm anchored VAS questionnaire for energy, fatigue, and concentration was distributed at each acute lab session; additional VAS questionnaires were distributed for the daily assessment over a 6-hour period during the 7-day subset study. Quest Diagnostics (Pittsburgh, Pa.) was utilized to transport and analyze all blood samples. For each laboratory session, subjects reported to the lab well hydrated, 10-12 hours postprandial, and at least 24-hours after their last exercise session.
Statistical Analyses for Example 1. Descriptive statistics (mean, median, SD, 95% CIs) were used to quantify subjects physical characteristics. […] Effect sizes were also calculated. […]

Data set [2] in a line: 7-day open-label repeated dose study of TC (N=6): VAS subjective measures. In kind it is in vivo, human. Particulars: 200 mg dose of theacrine over 7 days. Here is the method: A subset of 6 subjects underwent a separate 7-day, open-label, repeated dose study comparing 100 mg, 200 mg and 400 mg of TC. The experiment was a randomized, placebo-controlled, double-blind, within-subject crossover clinical trial (for N=15 study). A further subset study was open-label, sub-acute (7-day), repetitive dosing trial (for N=6 subset). Six (6) subjects provided written and dated informed consent to participate in the 7-day repetitive dosing study between Dec. 15, 2012 and Feb. 21, 2013. A separate cohort of fifteen (15) subjects provided written and dated informed consent for the acute dose, placebo-controlled, crossover clinical trial. All subjects were in good health as determined by physical examination and medical history, between the ages of 18 and 45 (inclusive). […] Subjects were willing and able to comply with the experimental and supplement protocol. Physical activity levels and health history were determined using standardized questionnaires. Heart rate and blood pressure were measured using an Omron HEM-780. Standing height was determined using a wall-mounted stadiometer. […] Medical Scale. A 100 mm anchored VAS questionnaire for energy, fatigue, and concentration was distributed at each acute lab session; additional VAS questionnaires were distributed for the daily assessment over a 6-hour period during the 7-day subset study. Quest Diagnostics (Pittsburgh, Pa.) was utilized to transport and analyze all blood samples.

A short description of data set [3]: Theacrine-caffeine interaction study: heart rate, blood pressure, rate pressure product, tolerability. Particulars: at the doses tested, administered alone or in combination. The text has this:
Study Design and Procedures. […] Theacrine, administered as iTeaCrine.®, was provided by Compound Solutions (Carlsbad, Calif). […] Treatment sequence was randomized using a 4×4 Latin square. There was an approximate 1-week washout period between treatments for all subjects.
Test Visit Procedures. […] A catheter was inserted into the forearm vein for blood sampling. Duplicate measurements of resting heart rate and blood pressure were taken pre-dose and prior to each timed blood sample. In addition, respiratory rate was counted in one minute and body temperature was measured using an ear scanning thermometer (dual readings taken at each time).
Differences between treatment group values were determined for systolic blood pressure (SBP), diastolic blood pressure (DBP), rate pressure product, and heart rate. Parametric data were analyzed by paired Student's t tests of mean differences in values between treatment groups. Statistical significance was defined a priori as a 2-sided or <0.05.

A short description of data set [4]: Single dose theacrine, caffeine or combination: subjective feelings on 10 cm visual analog scale. In kind it is in vivo, human. Here is the method: Subjects rated their subjective feelings using a 10 cm visual analog scale at 30 minutes, 1, 2, 3, 4, and 5 hours post ingestion and performed the trail making test (TMT) of cognitive performance at baseline and at hours 2 and 4 post ingestion.

The nature of data set [5]: Fourteen day study of repetitive dosing of theacrine and caffeine: psychometric indices. In kind it is in vivo, human.
The test system of data set [6] is biomarkers of inflammation. The data set can be described thus: Biomarkers of inflammation in humans. Particulars: acute inflammatory stressors or chronic consumption. In kind it is in vivo, human. The source says:
Theacrine itself can reduce biomarkers of inflammation in humans in response to acute inflammatory stressors (e.g., intense exercise) or chronic consumption. Theacrine is shown to decrease C-reactive protein (CRP), Erythrocyte sedimentation rate (ESR), interleukin-6 (IL-6) and TNF-alpha.

The conditions of data set [7]: cited from earlier work.
In another data set the test system is A1 and A2A AR. Particulars: rats; cited from earlier work.

On to `Cn1c(=O)c2c(n(C)c1=O)n(C)c(=O)n2C` [Theacrine, 1,3,7,9-tetramethylpurine-2,6,8-trione], for which, in data set [1] (200 mg dose of TC, 3-hr post-dosing period), the “changes in systemic hemodynamics or side effect profiles” value is reported as “No changes”. Further, the “systemic hemodynamics: systolic and diastolic blood pressure (FIGS. 4 and 5)” value in data set [1] (various time intervals after administration) is reported as “no substantial change”. Also, in data set [2], the “anxiety (FIG. 6)” value was “decreased substantially”, the “concentration (FIG. 7)” value is listed as “increased substantially”, the “energy (FIG. 7)” value is “increased substantially” and the “fatigue (FIG. 6)” value is reported as “decreased substantially”. For the same compound, in data set [2], the “libido (FIG. 6)” value is “increased substantially” and the “motivation to exercise (FIG. 7)” value is reported as “increased substantially”. Also, the “effect on baseline hemodynamic parameters, e.g. heart rate and blood pressure” value in data set [3] is “no effect”. In addition, the “time post-ingestion at which increase in subjective focus reached statistical significance” value in data set [4] (125 mg theacrine treatment) came out at 3 h. Besides, the “safety and improvement of subjective feelings related to energy” value in data set [4] (alone at 125 mg or in combination with caffeine) is “safe and effective”. Moreover, in data set [5], the anxiety entry is listed as “decreased anxiety”; the “psychometric indices of energy, focus, concentration, motivation and mood” value is reported as “still maintained elevated”. In addition, in data set [6], the “C-reactive protein (CRP)” value was “decrease”, the “Erythrocyte sedimentation rate (ESR)” value is recorded as “decrease”, the TNF-alpha result was “decrease” and the “interleukin-6 (IL-6)” value was “decrease”. In data set [7] (repeat dose theacrine studies), the “sensitization or pharmacodynamic tolerance” value was “absence of either sensitization or pharmacodynamic tolerance”. The “safety, adverse effects on hemodynamic parameters” value in data set [7] (theacrine supplementation up to 400 mg/day for 8 weeks) is on record as “appears to be safe”. In the data set with A1 and A2A AR, the “theacrine stimulating activity under a cocktail containing both A1 and A2A AR antagonists” value is “blocks”.
